One assay concerns the target T1, NOX1 (Homo sapiens, UniProt Q9Y5S8).
T1 construct: endogenous in cells; host or cells: HT29
T1 sequence (Q9Y5S8 1-564): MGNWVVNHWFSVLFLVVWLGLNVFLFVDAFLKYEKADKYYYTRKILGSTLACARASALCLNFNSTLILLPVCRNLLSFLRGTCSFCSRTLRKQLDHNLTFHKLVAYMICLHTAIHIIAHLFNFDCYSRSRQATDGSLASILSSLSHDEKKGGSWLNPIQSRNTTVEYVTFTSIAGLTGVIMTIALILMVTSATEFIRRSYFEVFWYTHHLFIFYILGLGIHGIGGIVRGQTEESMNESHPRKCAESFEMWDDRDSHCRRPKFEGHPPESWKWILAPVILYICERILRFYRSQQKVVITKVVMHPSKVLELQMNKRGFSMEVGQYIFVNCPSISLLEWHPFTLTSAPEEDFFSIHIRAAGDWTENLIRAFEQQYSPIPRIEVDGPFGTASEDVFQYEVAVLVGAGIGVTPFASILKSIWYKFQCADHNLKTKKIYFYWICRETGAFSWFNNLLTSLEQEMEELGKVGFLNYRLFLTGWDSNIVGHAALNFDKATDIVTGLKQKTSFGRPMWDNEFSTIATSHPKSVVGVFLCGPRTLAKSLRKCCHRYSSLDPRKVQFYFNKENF
T1 sequence (P13498 2-195 partner limits assumed): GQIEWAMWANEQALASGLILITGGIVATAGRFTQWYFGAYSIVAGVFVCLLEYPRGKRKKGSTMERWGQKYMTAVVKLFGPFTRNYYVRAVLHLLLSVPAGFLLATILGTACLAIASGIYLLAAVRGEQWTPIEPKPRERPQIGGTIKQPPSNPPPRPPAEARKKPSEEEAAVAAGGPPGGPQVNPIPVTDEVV
Briefly: NOX1 HT29 cell-based assay (luminol/HRP luminescence). The note with it: HT29 cells, DMSO = 0%, GKT137831 = 100%; for inhibition at 0.1 µM / inhibition at 1 µM: HT-29. Put shortly:
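HT29 cells (1-2×10^5 per well) pretreated 30-60 min at 37 °C with compound at 100 nM and 1000 nM final, in duplicate, 0.1% DMSO. ROS read as luminol (100 μM)/HRP (0.4 U) luminescence. Activity normalised to DMSO (0%) and GKT137831 (100%).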

Another assay deals with T2, NOX2 (Homo sapiens, UniProt P04839).
T2 construct: HL-60 cells, rich in NOX2 expression; endogenous in cells; host or cells: DMSO-differentiated HL-60
T2 sequence (P04839 2-570 limits assumed): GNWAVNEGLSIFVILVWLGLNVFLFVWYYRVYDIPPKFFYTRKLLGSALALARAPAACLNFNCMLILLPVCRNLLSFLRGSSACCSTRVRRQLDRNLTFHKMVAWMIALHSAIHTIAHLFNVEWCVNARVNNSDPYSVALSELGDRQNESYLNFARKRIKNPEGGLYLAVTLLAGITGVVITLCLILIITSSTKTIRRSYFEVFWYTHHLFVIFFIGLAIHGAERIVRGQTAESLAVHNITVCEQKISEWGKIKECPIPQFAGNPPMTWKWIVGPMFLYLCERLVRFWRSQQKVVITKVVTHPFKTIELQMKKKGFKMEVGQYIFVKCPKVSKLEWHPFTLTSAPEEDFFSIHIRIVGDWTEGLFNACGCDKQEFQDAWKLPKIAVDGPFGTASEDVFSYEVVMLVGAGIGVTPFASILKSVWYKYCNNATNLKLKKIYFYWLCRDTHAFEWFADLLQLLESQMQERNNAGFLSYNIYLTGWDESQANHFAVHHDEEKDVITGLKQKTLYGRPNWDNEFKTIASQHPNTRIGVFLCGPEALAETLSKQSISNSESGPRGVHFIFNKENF
T2 sequence (P13498 2-195 partner limits assumed): T1 sequence (P13498 2-195 partner limits assumed)
Description: NOX2 HL60 cell-based assay (PMA oxidative burst, L012 chemiluminescence). The following applies: DMSO-differentiated HL-60 cells, PMA-stimulated; for inhibition at 0.1 µM: HL-60, 100 nM; for inhibition at 1 µM: HL-60, 1000 nM. An outline of the steps: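 DMSO-differentiated HL-60 cells (2.5×10^5/well) with 100 μM L012 preincubated with compound 30-60 min at 37 °C in the dark. Oxidative burst triggered by 10 ng/mL PMA; superoxide chemiluminescence read every 5 min for 60 min.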

The next assay has as its target T3, NOX4 (Homo sapiens, UniProt Q9NPH5).
T3 construct: expressed in transfected cells
T3 sequence (Q9NPH5 1-578): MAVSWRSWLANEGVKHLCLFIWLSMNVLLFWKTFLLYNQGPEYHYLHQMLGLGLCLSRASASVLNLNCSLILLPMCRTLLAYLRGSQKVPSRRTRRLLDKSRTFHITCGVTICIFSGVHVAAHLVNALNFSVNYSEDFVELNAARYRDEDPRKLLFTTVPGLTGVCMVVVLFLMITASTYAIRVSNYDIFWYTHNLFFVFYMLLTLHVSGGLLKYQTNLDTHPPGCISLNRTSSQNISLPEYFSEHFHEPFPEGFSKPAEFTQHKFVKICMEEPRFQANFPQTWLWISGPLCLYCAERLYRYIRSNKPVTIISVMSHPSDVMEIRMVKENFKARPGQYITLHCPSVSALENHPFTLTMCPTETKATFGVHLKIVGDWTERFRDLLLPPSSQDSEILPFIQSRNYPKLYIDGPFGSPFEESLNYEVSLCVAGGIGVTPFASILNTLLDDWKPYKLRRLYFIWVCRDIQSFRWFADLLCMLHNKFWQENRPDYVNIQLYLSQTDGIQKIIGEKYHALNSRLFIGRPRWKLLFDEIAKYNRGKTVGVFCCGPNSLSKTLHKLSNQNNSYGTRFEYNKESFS
T3 sequence (P13498 2-195 partner limits assumed): T1 sequence (P13498 2-195 partner limits assumed)
Briefly: NOX4 HEK293 overexpression cell-based assay (Amplex Red H2O2). The following applies: HEK293 cells stably overexpressing NOX4, DMSO = 0, GKT137831 = 100; for inhibition at 0.1 µM: HEK293, 100 nM; for inhibition at 1 µM: HEK293, 1000 nM. Put shortly: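 HEK293 cells stably overexpressing NOX4 (3×10^4) preincubated 30 min at 37° C with compound in KRPG buffer, then mixed with Amplex Red reagent solution (50 μM Amplex Red, 0.1 units/mL HRP) for 90 min at 37° C in the dark. Supernatant fluorescence read at 530/590 nm; DMSO set to 0 and GKT137831 to 100.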

In general, inhibition refers to how much of the control response was suppressed. The low end stands for a response near the control, the high end for a response far below the control. As for `COc1cc2[nH]c(C(C)(C)C)c(O)c(=O)c2cc1OC` [Compound 14], the inhibition at 0.1 µM against NOX1 (100 nM), against NOX2 and at NOX4 was at most 19% in each case. Moreover, the inhibition at 1 µM is at least 80% on NOX1 (1000 nM), at most 19% against NOX2 and at most 19% against NOX4.
Consider `COc1ccc(-c2[nH]c3cc(OC)c(OC)cc3c(=O)c2O)c(OC)c1` [Compound 15], for which the inhibition at 0.1 µM on NOX1 (100 nM) was at least 80%. The inhibition at 1 µM against NOX1 (1000 nM), at NOX2 and at NOX4 was at least 80% in each case. Besides, the “% Inhibition NOX2” value at NOX2 (100 nM) is on record as “C (the percent of inhibition of NOX by the compounds ranges from 2000 to 49%)”. Besides, the “% Inhibition NOX4” value at NOX4 (100 nM) is “C (the percent of inhibition of NOX by the compounds ranges from 2000 to 49%)”.
Turning to `CCCOc1ccccc1-c1[nH]c2cc(OC)c(OC)cc2c(=O)c1O` [Compound 22], the inhibition at 0.1 µM at NOX1 (100 nM) is at least 80%. Besides, the inhibition at 1 µM on NOX1 (1000 nM), at NOX2 and on NOX4 was at least 80% throughout. Also, on NOX2 (100 nM), the “% Inhibition NOX2” value was “C (the percent of inhibition of NOX by the compounds ranges from 2000 to 49%)”. The “% Inhibition NOX4” value at NOX4 (100 nM) is reported as “C (the percent of inhibition of NOX by the compounds ranges from 2000 to 49%)”.
Take `COc1cc2[nH]c(-c3ccc(Cl)cc3)c(O)c(=O)c2cc1OC` [Compound 8]: the “% Inhibition NOX1” value at NOX1 (100 nM, 0.1 µM) was “C (the percent of inhibition of NOX by the compounds ranges from 2000 to 49%)”. The inhibition at 1 µM against NOX1 (1000 nM) was at least 80%; on NOX2, at most 19%; against NOX4, 50 to 79%. For the same compound, the inhibition at 0.1 µM at NOX2 and against NOX4 was at most 19% in each case.
Consider `COc1cc2[nH]c(-c3ccc(Cl)cc3Cl)c(O)c(=O)c2cc1OC` [Compound 49], for which the “% Inhibition NOX1” value at NOX1 (100 nM) and at NOX1 (1000 nM) was “A (the percent of inhibition of NOX by the compounds is larger than or equals to 80%)” in each case. Moreover, the “% Inhibition NOX2” value at NOX2 (1000 nM) is “A (the percent of inhibition of NOX by the compounds is larger than or equals to 80%)”. On NOX2, this compound displayed an inhibition at 0.1 µM of at most 19%. Moreover, the “% Inhibition NOX4” value on NOX4 (100 nM) is given as “C (the percent of inhibition of NOX by the compounds ranges from 2000 to 49%)”; on NOX4 (1000 nM) it was “B (the percent of inhibition of NOX by the compounds ranges from 50% o to 79% o)”.
